Test results reported in patent US20160037775A1, “ACTIVE INGREDIENT COMBINATIONS HAVING INSECTICIDAL AND ACARICIDAL PROPERTIES” (priority 2010, published 2016).
Where two headings read alike, the source gives them in different places.

Key:
Myzus persicae = assay: whole plant or invertebrate; assay type: in vivo
From the text: (§1) If the actual kill rate is greater than that calculated, the kill rate of the combination is superadditive, which means that a synergistic effect is present. In this case, the kill rate actually observed must be greater than the value calculated from the above formula for the expected kill rate (E).
(§2) • 78 parts by weight of acetone • 1.5 parts by weight of dimethylformamide Emulsifier: 0.5 part by weight of alkylaryl polyglycol ether
(§3) To produce an appropriate active ingredient formulation, 1 part by weight of active ingredient is mixed with the stated amounts of solvent and emulsifier, and the concentrate is diluted with emulsifier-containing water to the desired concentration.
After the desired time, the kill in % is determined. 100% means that all aphids have been killed; 0% means that no aphids have been killed. The kill rates determined are entered into Colby's formula.

Tetranychus urticae = assay: Tetranychus test (OP-resistant/spray treatment); assay type: in vivo; settings: for pest or weed control at 20 g/ha / pest or weed control at 0.8 g/ha / pest or weed control at 4 g/ha / pest or weed control at 100 g/ha: Tetranychus urticae
From the text: The expected action for a given combination of two active ingredients can be calculated according to S. R. Colby, Weeds 15 (1967), 20-22 as follows:
• X is the kill rate, expressed in % of the untreated control, in the case of use of active ingredient A in an application rate of m g/ha or in a concentration of m ppm, • Y is the kill rate, expressed in % of the untreated control, in the case of use of active ingredient B in an application rate of n g/ha or in a concentration of n ppm, and • E is the kill rate, expressed in % of the untreated control, in the case of use of active ingredients A and B in application rates of m and n g/ha or in a concentration of m and n ppm, then
as §1, §2, §3
Discs of bean leaves (Phaseolus vulgaris) infested by all stages of the two-spotted spider mite (Tetranychus urticae) are sprayed with an active ingredient formulation of the desired concentration.
After the desired period of time, the effect in % is determined. 100% means that all of the spider mites have been killed; 0% means that none of the spider mites have been killed.

[1] = Myzus persicae, 24 h, 20 g/ha, after 1 d, read-out: Kill rate in % after 1 d
[2] = 144 h, 20 g/ha, after 6 d, applied individually, read-out: Kill rate in % after 6 d
[3] = Myzus persicae, 24 h, 0.8 g/ha, after 1 d, read-out: Kill rate in % after 1 d
[4] = 48 h, after 2 d, applied individually, read-out: Kill rate in % after 2 d
[5] = Myzus persicae, 24 h, after 1 d, read-out: Kill rate in % after 1 d
[6] = Myzus persicae, 24 h, 100 g/ha, after 1 d, read-out: Kill rate in % after 1 d
[7] = Myzus persicae, 144 h, 0.8 g/ha, after 6 d, read-out: Kill rate in % after 6 d
[8] = Myzus persicae, 144 h, after 6 d, read-out: Kill rate in % after 6 d

CCOP(=O)(SC(C)CC)SC(C)CC (centres unmarked) [cadusaphos]
pest or weed control at 20 g/ha (Myzus persicae; [1]): 0% | pest or weed control at 20 g/ha (Tetranychus urticae; [2]): 0%

N#Cc1ccc(CC(=NNC(=O)Nc2ccc(OC(F)(F)F)cc2)c2cccc(C(F)(F)F)c2)cc1 (mixture of isomers) [metaflumizone]
Kill rate in % after 1 d (Myzus persicae; 20 g/ha, after 1 d): 0%

CC1(C)[C@H](C(=O)O[C@H](C#N)c2cccc(Oc3ccccc3)c2)[C@@H]1/C=C\C(=O)OC(C(F)(F)F)C(F)(F)F [acrinathrin]
pest or weed control at 0.8 g/ha (Myzus persicae; [3]): 0% | pest or weed control at 0.8 g/ha (Tetranychus urticae; [4]): 0% | pest or weed control at 4 g/ha (Tetranychus urticae; [4]): 20% | pest or weed control at 0.8 g/ha (Tetranychus urticae; 144 h, after 6 d, applied individually, read-out: Kill rate in % after 6 d): 40%

CNC(=O)Oc1cc(C)c(SC)c(C)c1 [methiocarb]
pest or weed control at 20 g/ha (Myzus persicae; [1]): 0%

CC1(C)C(C=C(Cl)Cl)C1C(=O)OC(C#N)c1cccc(Oc2ccccc2)c1 (stereo not drawn) [alpha-cypermethrin]
pest or weed control at 0.16 g/ha (Myzus persicae; [5]): 70% | pest or weed control at 4 g/ha (Tetranychus urticae; [4]): 0%

CNC(=O)Oc1cccc2c1OC(C)(C)C2 [carbofuran]
pest or weed control at 20 g/ha (Myzus persicae; [1]): 70%

CC(C)c1cc(Oc2ccccc2)cc(C(C)C)c1NC(=S)NC(C)(C)C [diafenthiuron]
pest or weed control at 100 g/ha (Myzus persicae; Myzus persicae, 24 h, read-out: Kill rate in % after 1 d): 0% | pest or weed control at 20 g/ha (Myzus persicae; Myzus persicae, 144 h, read-out: Kill rate in % after 6 d): 70% | pest or weed control at 100 g/ha (Tetranychus urticae; 48 h, read-out: Kill rate in % after 2 d): 0% | pest or weed control at 20 g/ha (Tetranychus urticae; 144 h, read-out: Kill rate in % after 6 d): 10%

milbemectin
Kill rate in % after 6 d (Myzus persicae; 0.032 g/ha, after 6 d): 0% | Kill rate in % after 1 d (Myzus persicae; 0.8 g/ha, after 1 d): 0% | Kill rate in % after 2 d (Tetranychus urticae; 0.032 g/ha, after 2 d, applied individually): 50%

CN1COCN(Cc2cnc(Cl)s2)/C1=N\[N+](=O)[O-] [thiamethoxam]
pest or weed control at 20 g/ha (Myzus persicae; [1]): 70%

O=[N+]([O-])NC1=NCCN1Cc1ccc(Cl)nc1 [imidacloprid]
pest or weed control at 0.8 g/ha (Myzus persicae; [3]): 0%

COP(N)(=O)SC (centres unmarked) [methamidophos]
pest or weed control at 20 g/ha (Myzus persicae; [1]): 0% | pest or weed control at 100 g/ha (Myzus persicae; [6]): 80%

CC1(C)[C@H](C(=O)O[C@H](C#N)c2cccc(Oc3ccccc3)c2)[C@@H]1C=C(Br)Br [deltamethrin]
pest or weed control at 0.8 g/ha (Myzus persicae; [3]): 0%

N#C/N=C1\SCCN1Cc1ccc(Cl)nc1 [thiacloprid]
pest or weed control at 20 g/ha (Myzus persicae; [1]): 80% | pest or weed control at 0.8 g/ha (Myzus persicae; [7]): 80%

Cc1cc(Cl)cc(C)c1C1=C(O)C2(CCC3(CC2)OCCO3)NC1=O [11-(4-chloro-2,6-dimethylphenyl)-12-hydroxy-1,4-dioxa-9-azadispiro[4.2.4.2]tetradec-11-en-10-one]
pest or weed control at 0.8 g/ha (Myzus persicae; [7]): 0%

CC1(C)[C@H](C=C(Cl)Cl)[C@H]1C(=O)OCc1c(F)c(F)cc(F)c1F [transfluthrin]
pest or weed control at 20 g/ha (Myzus persicae; [1]): 70%

CCOCn1c(-c2ccc(Cl)cc2)c(C#N)c(Br)c1C(F)(F)F [chlorfenapyr]
pest or weed control at 0.16 g/ha (Myzus persicae; [8]): 0% | pest or weed control at 0.8 g/ha (Myzus persicae; [7]): 0% | pest or weed control at 4 g/ha (Tetranychus urticae; [4]): 10%

O=C1C=C(N(Cc2ccc(Cl)nc2)CC(F)F)CO1 [4-{[(6-chloropyrid-3-yl)methyl](2,2-difluoroethyl)amino}furan-2(5H)-one]
pest or weed control at 20 g/ha (Myzus persicae; [1]): 0% | pest or weed control at 20 g/ha (Tetranychus urticae; 48 h, 20 g/ha, after 2 d, applied individually, read-out: Kill rate in % after 2 d): 0%

CCOC(=O)OC1=C(c2cc(C)ccc2C)C(=O)N[C@]12CC[C@@H](OC)CC2 [spirotetramat]
pest or weed control at 4 g/ha (Tetranychus urticae; [4]): 0%

CC1=NNC(=O)N(/N=C/c2cccnc2)C1 [pymetrozine]
pest or weed control at 100 g/ha (Myzus persicae; [6]): 0%

CS/C(C)=N\OC(=O)N(C)SN(C)C(=O)O/N=C(\C)SC [thiodicarb]
pest or weed control at 20 g/ha (Myzus persicae; [1]): 0% | pest or weed control at 100 g/ha (Tetranychus urticae; 48 h, 100 g/ha, after 2 d, applied individually, read-out: Kill rate in % after 2 d): 0%

CC(c1ccc(C(F)(F)F)nc1)S(C)(=O)=NC#N (centres unmarked) [sulfoxaflor]
pest or weed control at 0.16 g/ha (Myzus persicae; [5]): 0%

N#CCNC(=O)c1cnccc1C(F)(F)F [flonicamid]
Kill rate in % after 1 d (Myzus persicae; 20 g/ha, after 1 d): 0%

CC(C)N1C(=O)N(c2ccccc2)CS/C1=N\C(C)(C)C [buprofezin]
pest or weed control at 500 g/ha (Myzus persicae; Myzus persicae, 24 h, 500 g/ha, after 1 d, read-out: Kill rate in % after 1 d): 0%

CC[S+]([O-])c1c(C#N)nn(-c2c(Cl)cc(C(F)(F)F)cc2Cl)c1N (centres unmarked) [ethiprole]
pest or weed control at 4 g/ha (Myzus persicae; Myzus persicae, 24 h, 4 g/ha, after 1 d, read-out: Kill rate in % after 1 d): 0%

CN/C(=N\[N+](=O)[O-])NCc1cnc(Cl)s1 [clothianidin]
pest or weed control at 20 g/ha (Myzus persicae; [1]): 70% | pest or weed control at 0.16 g/ha (Myzus persicae; [8]): 0%

C/C(=N\C#N)N(C)Cc1ccc(Cl)nc1 [acetamiprid]
pest or weed control at 0.16 g/ha (Myzus persicae; [8]): 0%

Cc1c(F)c(F)c(COC(=O)[C@@H]2[C@H](/C=C(\Cl)C(F)(F)F)C2(C)C)c(F)c1F (racemic) [tefluthrin]
pest or weed control at 20 g/ha (Tetranychus urticae; [2]): 0%
